The results in this text go back to patent US8541379B2 (Ajinomoto Co., Inc., priority 2009, dated 2013).

Marks after values point to notes of the source that are not given here.

What all share (assay type): in vivo, human
The nature of assay [1]: Paired comparison sensory test, solution of tomato catsup. To be noted: 33.3% tomato catsup solution, N=9, significant level of 1%. The protocol: More specifically, the sensory evaluation test was carried out according to the following procedures: Commercially available tomato catsup for popular use was dispersed in hot water in a concentration of 33.3% by mass to thus form a solution of tomato catsup. This solution was admixed with γ-Glu-Nva, γ-Glu-Cys-Gly, or γ-Glu-Abu as a test compound. According to the paired comparison test method (pair test), the panelists were requested to comparatively evaluate the following three samples and to judge whether “any of them was preferred or favorable since it could enhance the flavor and taste of the solution of tomato catsup without changing the balance between them”: (1) 0.02% by mass of γ-Glu-Cys-Gly whose kokumi-imparting activity was identical to 0.0004% by mass of γ-Glu-Nva; (2) 0.0004% by mass of γ-Glu-Abu, the amount of which was identical to 0.0004% by mass of γ-Glu-Nva; (3) 0.003% by mass of γ-Glu-Abu whose kokumi-imparting activity was identical to that observed for 0.0004% by mass of γ-Glu-Nva. The panelists used in this test were persons who had been engaged in the development of seasonings for foods over not less than one year of the cumulative time period and who could judge that the difference in the titer between γ-Glu-Cys-Gly and γ-Glu-Val-Gly added to a solution having umami/salty taste was about 10 times (while confirming the ability of these persons at regular intervals). The evaluation was carried out at N (the number of panelists used)=9.
However, the results observed for tomato catsup are shown in Table 6 as the typical example thereof.

Assay [2] in a line: Paired comparison sensory test, solution of miso. Conditions: 10.0% miso solution, N=9. The protocol: More specifically, the sensory evaluation test was carried out according to the following procedures: Commercially available miso (ingredients: soybeans and barley) for popular use was dispersed in hot water in a concentration of 10.0% by mass to thus form a solution of miso. This solution was admixed with γ-Glu-Nva, γ-Glu-Cys-Gly, or γ-Glu-Abu as a test compound. According to the paired comparison test method (pair test), the panelists were requested to comparatively evaluate the following three samples and to judge whether “any of them was preferred or favorable since it could enhance the flavor and taste of the solution of miso without changing the balance between them”: (1) 0.02% by mass of γ-Glu-Cys-Gly whose kokumi-imparting activity was identical to 0.0004% by mass of γ-Glu-Nva; (2) 0.0004% by mass of γ-Glu-Abu, the amount of which was identical to 0.0004% by mass of γ-Glu-Nva; (3) 0.003% by mass of γ-Glu-Abu whose kokumi-imparting activity was identical to that observed for 0.0004% by mass of γ-Glu-Nva. The panelists used in this test were persons who had been engaged in the development of seasonings for foods over not less than one year of the cumulative time period and who could judge that the difference in the titer between γ-Glu-Cys-Gly and γ-Glu-Val-Gly added to a solution having umami/salty taste is about 10 times (while confirming the ability of these persons at regular intervals). The evaluation was carried out at N (the number of panelists used)=9.

Assay [3] in a line: Paired comparison sensory test, basil (Labiatae) herb/spice solution. To be noted: 0.5% basil solution, N=9. The protocol:
More specifically, the sensory evaluation test was carried out according to the following procedures: Commercially available typical herb/spice in powdery form was dispersed in water in a concentration of 0.5% by mass to thus form a herb/spice solution. This solution was admixed with γ-Glu-Nva, γ-Glu-Cys-Gly, or γ-Glu-Abu as a test compound. According to the paired comparison test, the panelists were requested to comparatively evaluate the following three samples and to judge whether “any of them was preferred since it could enhance the flavor and taste of the herb/spice solution without changing the balance between them”: (1) 0.02% by mass of γ-Glu-Cys-Gly whose kokumi-imparting activity was identical to 0.00015% by mass of γ-Glu-Nva; (2) 0.00015% by mass of γ-Glu-Abu, the amount of which was identical to 0.00015% by mass of γ-Glu-Nva; (3) 0.003% by mass of γ-Glu-Abu whose kokumi-imparting activity was identical to that observed for 0.00015% by mass of γ-Glu-Nva. The panelists used in this test were persons who had been engaged in the development of seasonings for foods over not less than one year of the cumulative time period and who could judge that the difference in the titer between γ-Glu-Cys-Gly and γ-Glu-Val-Gly added to a solution having umami/salty taste is about 10 times (while confirming the ability of these persons at regular intervals). The evaluation was carried out at N (the number of panelists used)=9.

For the molecule `CCC[C@H](NC(=O)CC[C@H](N)C(=O)O)C(=O)O` [γ-Glu-Nva, γ-L-glutamyl-L-norvaline], the “No. of Panelists who judged γ-Glu-Nva rather preferred” value in assay [1] (0.0004 wt % γ-Glu-Nva vs 0.0004 wt % γ-Glu-Abu) is 9/9**; in assay [1] (0.0004 wt % γ-Glu-Nva vs 0.003 wt % γ-Glu-Abu) it was 9/9**; in assay [1] (0.0004 wt % γ-Glu-Nva vs 0.02 wt % γ-Glu-Cys-Gly) it was 9/9**; in assay [2] (0.0004 wt % γ-Glu-Nva vs 0.0004 wt % γ-Glu-Abu, significant level of 1%), 9/9***; in assay [2] (0.0004 wt % γ-Glu-Nva vs 0.003 wt % γ-Glu-Abu, significant level of 1%) it was 9/9***; in assay [2] (0.0004 wt % γ-Glu-Nva vs 0.02 wt % γ-Glu-Cys-Gly, significant level of 5%), 8/9**. For the same molecule, the “No. of Panelists who judged γ-Glu-Nva rather preferred” value in assay [3] (0.00015 wt % γ-Glu-Nva vs 0.00015 wt % γ-Glu-Abu, significant level of 1%) is reported as 9/9**; in assay [3] (0.00015 wt % γ-Glu-Nva vs 0.003 wt % γ-Glu-Abu, significant level of 5%), 8/9***; in assay [3] (0.00015 wt % γ-Glu-Nva vs 0.02 wt % γ-Glu-Cys-Gly, significant level of 1%), 9/9**.
